According to patent US20250288561A1, “NEZULCITINIB FOR DELIVERY BY NEBULIZED ORAL INHALATION” (THERAVANCE BIOPHARMA R&D IP, LLC, priority 2022, published 2025):
Like-named read-outs stand apart in the source and are kept apart here.

Legend:
Abl2 = Abl2 (Homo sapiens, UniProt P42684); experiment: Abelson kinase inhibition; type: biochemical
[1] = Phase 1 open-label study: plasma PK of single inhaled nezulcitinib doses under supplemental oxygenation scenarios; type: in vivo, human; conditions: for AUC % extrap / CL/F / DN AUC0-inf / DN AUC0-t / DN Cmax / Kel / Tmax / AUC(0-inf) / Cmax / AUC(0-t) / Vd/F / half-life: plasma; for AUC % extrap / CL/F / DN AUC0-inf / DN AUC0-t / DN Cmax / Kel / AUC(0-inf) / Cmax / AUC(0-t) / Vd/F / half-life: arithmetic mean; for Tmax: median; for Vd/F: read-out: Vz/F; for half-life: read-out: t½ (converted)
Text: Part A: assessed the plasma PK of nezulcitinib following single inhaled doses administered in the setting of various supplemental oxygenation scenarios in healthy participants.
This was a Phase 1, open-label, fixed-sequence, 4-period study to evaluate the PK and safety of single inhaled doses of nezulcitinib, administered under different supplemental oxygenation scenarios.
Participants received a single inhaled dose of nezulcitinib using a nebulizer device on Day 1 of each administration period, under different supplementary oxygenation conditions and under fasting conditions.
Administrations were as follows: • Administration A (test): 3 mg nezulcitinib delivered by nasal inhalation via the Aerogen Solo integrated with a high-flow nasal cannula circuit delivering supplemental oxygen at a flow rate of 30 L/min. • Administration B (reference): 3 mg nezulcitinib delivered by oral inhalation via the Aerogen Solo coupled with the Aerogen Ultra handheld device, in the presence of supplemental oxygen delivery via low-flow nasal cannula at 6 L/min. • Administration C (test): 3 mg nezulcitinib delivered by oral inhalation via the Aerogen Solo coupled with the Aerogen Ultra handheld device, in the presence of supplemental oxygen delivery via high-flow nasal cannula at a flow rate of 30 L/min. • Administration D1 (test): 3 mg nezulcitinib delivered by oral inhalation via the Aerogen Solo coupled with the Aerogen Ultra handheld device, in the presence of supplemental oxygen delivery via high-flow nasal cannula at a flow rate of 50 L/min. • Administration D2 (test): 9 mg nezulcitinib delivered by oral inhalation via the Aerogen Solo coupled with the Aerogen Ultra handheld device, in the presence of supplemental oxygen delivery via high-flow nasal cannula at a flow rate of 50 L/min.
Serial blood samples were collected prior to and until 48 hours following dosing on Day 1 of each period to determine the concentration of nezulcitinib in plasma.
The following non-compartmental PK parameters were calculated for nezulcitinib, as appropriate:
• AUC0-t: The area under the concentration time curve, from time 0 to the last observed non-zero concentration, as calculated by the linear trapezoidal method. • AUC0-24: The area under the concentration time curve, from time 0 to the 24 hour time point, as calculated by the linear trapezoidal method. • AUC0-inf: The area under the concentration time curve from time 0 extrapolated to infinity. AUC0-inf was calculated as the sum of AUC0-t plus the ratio of the last measurable plasma concentration to the elimination rate constant. • AUC % extrap: Percent of AUC0-inf extrapolated, represented as (1−AUC0-t/AUC0-inf)*100. • CL/F: Apparent total plasma clearance after oral (extravascular) administration, calculated as Dose/AUC0-inf. • Cmax: Maximum observed concentration. • Tmax: Time to reach Cmax. If the maximum value occurs at more than one time point, Tmax is defined as the first time point with this value. • Kel: Apparent first order terminal elimination rate constant calculated from a semi-log plot of the plasma concentration versus time curve. The parameter was calculated by linear least-squares regression analysis using the maximum number of points in the terminal log-linear phase (e.g., three or more non-zero plasma concentrations). • t1/2: Apparent first-order terminal elimination half-life was calculated as 0.693/Kel. • Vz/F: Apparent volume of distribution during the terminal elimination phase after oral (extravascular) administration, calculated as Dose/(AUC0-inf*Kel).

TYK2 = TYK2 (Homo sapiens, UniProt P29597); experiment: JAK enzyme inhibition; type: biochemical
IFNγ secretion = experiment: Mixed lymphocyte reaction assay; type: cell-based
Text: The mixed lymphocyte reaction assay is an in-vitro assay that mimics transplant rejection.

IL-6 signaling = experiment: Inhibition of cytokine signaling; type: cell-based
JAK1 = JAK1 (Homo sapiens, UniProt P23458); experiment: JAK enzyme inhibition; type: biochemical
[2] = Administration A: single 3 mg, nasal inhalation via high-flow nasal cannula circuit, oxygen 30 L/min
[3] = Administration B: single 3 mg, oral inhalation, low-flow nasal cannula oxygen 6 L/min
[4] = Administration C: single 3 mg, oral inhalation, high-flow nasal cannula oxygen 30 L/min
[5] = Administration D1: single 3 mg, oral inhalation, high-flow nasal cannula oxygen 50 L/min
[6] = Administration D2: single 9 mg, oral inhalation, high-flow nasal cannula oxygen 50 L/min
[7] = human, inhaled or intranasal, 3 mg, Administration A: single 3 mg, nasal inhalation via high-flow nasal cannula circuit, oxygen 30 L/min
[8] = human, inhaled, 3 mg, Administration B: single 3 mg, oral inhalation, low-flow nasal cannula oxygen 6 L/min
[9] = human, inhaled, 3 mg, Administration C: single 3 mg, oral inhalation, high-flow nasal cannula oxygen 30 L/min
[10] = human, inhaled, 3 mg, Administration D1: single 3 mg, oral inhalation, high-flow nasal cannula oxygen 50 L/min
[11] = human, inhaled, 9 mg, Administration D2: single 9 mg, oral inhalation, high-flow nasal cannula oxygen 50 L/min

JAK1, sequence (P23458 whole entry): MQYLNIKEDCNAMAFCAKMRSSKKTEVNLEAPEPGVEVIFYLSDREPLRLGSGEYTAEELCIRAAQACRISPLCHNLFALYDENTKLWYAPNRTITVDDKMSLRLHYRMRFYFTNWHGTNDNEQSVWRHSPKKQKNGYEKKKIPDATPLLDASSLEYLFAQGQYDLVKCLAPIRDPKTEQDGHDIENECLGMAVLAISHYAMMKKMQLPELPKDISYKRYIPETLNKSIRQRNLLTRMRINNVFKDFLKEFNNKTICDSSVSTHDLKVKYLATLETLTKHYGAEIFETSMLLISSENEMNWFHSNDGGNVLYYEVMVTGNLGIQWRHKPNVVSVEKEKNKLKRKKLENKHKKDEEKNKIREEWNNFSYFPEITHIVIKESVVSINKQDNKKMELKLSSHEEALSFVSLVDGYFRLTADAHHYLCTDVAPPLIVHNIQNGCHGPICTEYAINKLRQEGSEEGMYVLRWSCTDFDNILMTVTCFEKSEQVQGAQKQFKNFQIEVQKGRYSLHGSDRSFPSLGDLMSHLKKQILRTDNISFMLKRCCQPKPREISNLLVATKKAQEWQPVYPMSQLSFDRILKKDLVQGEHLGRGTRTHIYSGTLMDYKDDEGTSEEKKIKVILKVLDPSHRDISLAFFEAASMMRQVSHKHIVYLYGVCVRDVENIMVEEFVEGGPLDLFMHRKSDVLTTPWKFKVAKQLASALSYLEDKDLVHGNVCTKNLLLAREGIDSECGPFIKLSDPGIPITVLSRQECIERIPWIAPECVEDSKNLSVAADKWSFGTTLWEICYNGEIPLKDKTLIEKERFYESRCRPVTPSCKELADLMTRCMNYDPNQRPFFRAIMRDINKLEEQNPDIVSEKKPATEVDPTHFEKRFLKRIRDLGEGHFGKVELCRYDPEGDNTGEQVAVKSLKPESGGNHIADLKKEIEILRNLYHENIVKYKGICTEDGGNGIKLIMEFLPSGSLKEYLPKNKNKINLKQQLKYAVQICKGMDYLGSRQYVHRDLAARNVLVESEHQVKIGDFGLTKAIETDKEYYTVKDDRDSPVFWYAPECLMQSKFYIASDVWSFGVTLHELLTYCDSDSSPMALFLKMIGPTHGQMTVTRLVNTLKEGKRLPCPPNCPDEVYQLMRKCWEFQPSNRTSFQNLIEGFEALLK
Abl2, sequence (P42684 whole entry): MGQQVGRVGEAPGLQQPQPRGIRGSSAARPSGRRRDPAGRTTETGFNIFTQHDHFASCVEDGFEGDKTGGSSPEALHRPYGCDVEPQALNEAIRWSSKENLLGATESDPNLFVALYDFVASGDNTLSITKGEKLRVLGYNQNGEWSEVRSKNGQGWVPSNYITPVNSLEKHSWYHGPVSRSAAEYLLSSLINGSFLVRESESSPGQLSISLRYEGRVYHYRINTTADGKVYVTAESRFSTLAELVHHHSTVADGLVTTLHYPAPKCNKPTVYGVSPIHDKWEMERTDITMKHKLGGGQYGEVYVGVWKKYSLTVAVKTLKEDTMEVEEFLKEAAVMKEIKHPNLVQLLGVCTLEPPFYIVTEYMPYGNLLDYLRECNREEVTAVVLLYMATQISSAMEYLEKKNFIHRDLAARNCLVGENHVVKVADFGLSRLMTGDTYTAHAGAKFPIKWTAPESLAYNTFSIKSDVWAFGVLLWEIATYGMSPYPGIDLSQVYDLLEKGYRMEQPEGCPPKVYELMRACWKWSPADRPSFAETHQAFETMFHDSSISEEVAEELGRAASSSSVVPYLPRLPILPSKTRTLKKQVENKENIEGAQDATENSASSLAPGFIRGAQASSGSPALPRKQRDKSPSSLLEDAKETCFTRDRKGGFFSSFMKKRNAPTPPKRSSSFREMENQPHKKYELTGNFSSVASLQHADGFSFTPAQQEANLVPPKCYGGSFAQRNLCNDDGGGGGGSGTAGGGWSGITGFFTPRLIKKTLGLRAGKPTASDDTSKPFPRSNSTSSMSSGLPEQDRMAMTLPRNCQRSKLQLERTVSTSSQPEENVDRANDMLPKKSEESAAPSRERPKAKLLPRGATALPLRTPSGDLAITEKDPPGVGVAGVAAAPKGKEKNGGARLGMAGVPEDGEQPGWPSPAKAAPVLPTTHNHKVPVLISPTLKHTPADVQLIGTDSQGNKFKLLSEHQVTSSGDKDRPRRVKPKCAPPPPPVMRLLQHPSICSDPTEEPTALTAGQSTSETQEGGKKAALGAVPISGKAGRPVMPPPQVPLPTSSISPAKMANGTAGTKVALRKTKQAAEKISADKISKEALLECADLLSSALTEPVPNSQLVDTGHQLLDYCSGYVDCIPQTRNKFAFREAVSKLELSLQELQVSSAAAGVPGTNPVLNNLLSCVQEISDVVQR
TYK2, sequence (P29597 whole entry): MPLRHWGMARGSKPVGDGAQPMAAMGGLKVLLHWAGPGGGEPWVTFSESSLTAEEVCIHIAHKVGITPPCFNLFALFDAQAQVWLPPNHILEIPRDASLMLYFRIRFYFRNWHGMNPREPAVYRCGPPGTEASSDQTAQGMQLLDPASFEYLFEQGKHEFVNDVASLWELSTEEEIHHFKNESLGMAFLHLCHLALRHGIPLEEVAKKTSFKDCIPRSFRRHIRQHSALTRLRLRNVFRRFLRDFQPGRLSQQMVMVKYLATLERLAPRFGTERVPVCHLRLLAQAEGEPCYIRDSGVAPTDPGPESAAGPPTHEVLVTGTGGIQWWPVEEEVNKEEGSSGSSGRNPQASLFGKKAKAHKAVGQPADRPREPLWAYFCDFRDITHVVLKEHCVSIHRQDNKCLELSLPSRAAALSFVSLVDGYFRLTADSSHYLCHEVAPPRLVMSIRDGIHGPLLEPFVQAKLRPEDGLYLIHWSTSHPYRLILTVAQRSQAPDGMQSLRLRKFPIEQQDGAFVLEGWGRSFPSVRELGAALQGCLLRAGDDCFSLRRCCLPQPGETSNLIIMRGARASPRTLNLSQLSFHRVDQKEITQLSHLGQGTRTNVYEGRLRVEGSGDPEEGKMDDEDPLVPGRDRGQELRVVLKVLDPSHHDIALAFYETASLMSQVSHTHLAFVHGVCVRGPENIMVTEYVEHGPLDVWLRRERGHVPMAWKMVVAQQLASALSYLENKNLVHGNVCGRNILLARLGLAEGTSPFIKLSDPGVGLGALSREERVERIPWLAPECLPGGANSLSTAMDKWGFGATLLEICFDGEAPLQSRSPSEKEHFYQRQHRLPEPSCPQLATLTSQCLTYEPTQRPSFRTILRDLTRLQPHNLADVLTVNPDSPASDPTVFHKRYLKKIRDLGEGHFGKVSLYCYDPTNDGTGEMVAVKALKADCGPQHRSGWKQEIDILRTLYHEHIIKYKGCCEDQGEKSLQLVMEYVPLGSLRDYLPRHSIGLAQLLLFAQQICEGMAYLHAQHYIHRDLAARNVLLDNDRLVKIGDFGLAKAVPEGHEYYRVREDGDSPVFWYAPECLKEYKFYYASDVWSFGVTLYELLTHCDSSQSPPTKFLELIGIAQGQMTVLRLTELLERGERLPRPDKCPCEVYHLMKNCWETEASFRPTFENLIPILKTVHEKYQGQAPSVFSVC

CCc1cc(O)ccc1-c1ccc2c(-c3nc4c([nH]3)CN(C(C)C)[C@H](C(=O)N3CC(N(C)C)C3)C4)n[nH]c2c1 [Compound 1, (S)-(3-(dimethylamino)azetidin-1-yl)(2-(6-(2-ethyl-4-hydroxyphenyl)-1H-indazol-3-yl)-5-isopropyl-4,5,6,7-tetrahydro-3H-imidazo[4,5-c]pyridin-6-yl)methanone]
inhibition of Abl2 (Abl2): potently inhibit | plasma concentrations, effect of increasing flow rate from 30 L/min (Administration C) to 50 L/min (Administration D1) ([1]; 3 mg oral inhalation): did not impact the plasma concentrations | plasma concentrations, Administration C compared to Administration A ([1]; 3 mg oral inhalation with high-flow 30 L/min vs 3 mg nasal through the high-flow circuit 30 L/min, FIG. 3): sustained increased plasma concentrations | AUC % extrap [1, 2]: 4.451% | CL/F [1, 2]: 526.8 L/h | DN AUC0-inf [1, 2]: 2.586 ± [ng*hr/mL]/mg | DN AUC0-t [1, 2]: 2.480 ± [ng*hr/mL]/mg | DN Cmax [1, 2]: 0.5610 ± [ng/mL]/mg | Kel [1, 2]: 0.07122 ± 1 h⁻¹ | Tmax [1, 2]: 1.000 h | AUC % extrap [1, 3]: 3.152% | CL/F [1, 3]: 287.0 L/h | DN AUC0-inf [1, 3]: 18.00 ± [ng*hr/mL]/mg | DN AUC0-t [1, 3]: 17.46 ± [ng*hr/mL]/mg | DN Cmax [1, 3]: 4.658 ± [ng/mL]/mg | Kel [1, 3]: 0.07667 ± 1 h⁻¹ | AUC % extrap [1, 4]: 3.898% | CL/F [1, 4]: 128.9 L/h | DN AUC0-inf [1, 4]: 18.24 ± [ng*hr/mL]/mg | DN AUC0-t [1, 4]: 17.69 ± [ng*hr/mL]/mg | DN Cmax [1, 4]: 4.725 ± [ng/mL]/mg | Kel [1, 4]: 0.04804 ± 1 h⁻¹ | AUC % extrap [1, 5]: 2.813% | CL/F [1, 5]: 146.9 L/h | DN AUC0-inf [1, 5]: 17.44 ± [ng*hr/mL]/mg | DN AUC0-t [1, 5]: 16.94 ± [ng*hr/mL]/mg | DN Cmax [1, 5]: 4.649 ± [ng/mL]/mg | Kel [1, 5]: 0.06152 ± 1 h⁻¹ | Tmax [1, 5]: 1.000 h | AUC % extrap [1, 6]: 2.727% | CL/F [1, 6]: 312.3 L/h | DN AUC0-inf [1, 6]: 16.89 ± [ng*hr/mL]/mg | DN AUC0-t [1, 6]: 16.53 ± [ng*hr/mL]/mg | DN Cmax [1, 6]: 4.858 ± [ng/mL]/mg | Kel [1, 6]: 0.05057 ± 1 h⁻¹ | Tmax ([1]; human, inhaled, Administration B: single 3 mg, oral inhalation, low-flow nasal cannula oxygen 6 L/min, read-out: Tmax): 1 h | Tmax ([1]; human, inhaled, Administration D2: single 9 mg, oral inhalation, high-flow nasal cannula oxygen 50 L/min, read-out: Tmax): 1 h | AUC(0-inf) [1, 7]: 0.00776 µg·h/mL | Cmax [1, 7]: 0.00168 µg/mL | AUC(0-t) ([1]; human, inhaled or intranasal, 3 mg, Administration A: single 3 mg, nasal inhalation via high-flow nasal cannula circuit, oxygen 30 L/min, read-out: AUC0-24): 0.00706 µg·h/mL | AUC(0-t) ([1]; human, inhaled or intranasal, 3 mg, Administration A: single 3 mg, nasal inhalation via high-flow nasal cannula circuit, oxygen 30 L/min, read-out: AUC0-t): 0.00744 µg·h/mL | Vd/F [1, 7]: 7400 L | half-life [1, 7]: 10.2 h | AUC(0-inf) [1, 8]: 0.054 µg·h/mL | Cmax [1, 8]: 0.014 µg/mL | AUC(0-t) ([1]; human, inhaled, 3 mg, Administration B: single 3 mg, oral inhalation, low-flow nasal cannula oxygen 6 L/min, read-out: AUC0-24): 0.0491 µg·h/mL | AUC(0-t) ([1]; human, inhaled, 3 mg, Administration B: single 3 mg, oral inhalation, low-flow nasal cannula oxygen 6 L/min, read-out: AUC0-t): 0.0524 µg·h/mL | Vd/F [1, 8]: 1770 L | half-life [1, 8]: 12.9 h | AUC(0-inf) [1, 9]: 0.0547 µg·h/mL | Cmax [1, 9]: 0.0142 µg/mL | AUC(0-t) ([1]; human, inhaled, 3 mg, Administration C: single 3 mg, oral inhalation, high-flow nasal cannula oxygen 30 L/min, read-out: AUC0-24): 0.0499 µg·h/mL | AUC(0-t) ([1]; human, inhaled, 3 mg, Administration C: single 3 mg, oral inhalation, high-flow nasal cannula oxygen 30 L/min, read-out: AUC0-t): 0.0531 µg·h/mL | Vd/F [1, 9]: 3920 L | half-life [1, 9]: 15.1 h | AUC(0-inf) [1, 10]: 0.0523 µg·h/mL | Cmax [1, 10]: 0.0139 µg/mL | AUC(0-t) ([1]; human, inhaled, 3 mg, Administration D1: single 3 mg, oral inhalation, high-flow nasal cannula oxygen 50 L/min, read-out: AUC0-24): 0.0479 µg·h/mL | AUC(0-t) ([1]; human, inhaled, 3 mg, Administration D1: single 3 mg, oral inhalation, high-flow nasal cannula oxygen 50 L/min, read-out: AUC0-t): 0.0508 µg·h/mL | Vd/F [1, 10]: 1780 L | half-life [1, 10]: 12.3 h | AUC(0-inf) [1, 11]: 0.152 µg·h/mL | Cmax [1, 11]: 0.0437 µg/mL | AUC(0-t) ([1]; human, inhaled, 9 mg, Administration D2: single 9 mg, oral inhalation, high-flow nasal cannula oxygen 50 L/min, read-out: AUC0-24): 0.141 µg·h/mL | AUC(0-t) ([1]; human, inhaled, 9 mg, Administration D2: single 9 mg, oral inhalation, high-flow nasal cannula oxygen 50 L/min, read-out: AUC0-t): 0.149 µg·h/mL | Vd/F [1, 11]: 7310 L | half-life [1, 11]: 14.1 h | plasma concentration, 9 mg (Administration D2) vs 3 mg (Administration D1) ([1]; oral inhalation, high-flow 50 L/min, FIG. 6): approximately a dose-proportional increase in plasma concentration | inhibition of TYK2 (TYK2): potent inhibitor | inhibition of IFNγ secretion (IFNγ secretion): effectively inhibit | inhibition of IL-6 signaling (IL-6 signaling): shown to inhibit | inhibition of JAK1 (JAK1): potent inhibitor | plasma concentrations with low-flow nasal oxygen therapy compared to healthy subjects without supplemental oxygen therapy (human, in vivo): similar | plasma exposure (phase 2): low
